# Where a name gives a salt, the structure may show the parent alone.
# Biological target: T1, cPLA2 crudely purified from the cytoplasm fraction of U937 (Homo sapiens, UniProt P47712)
# T1 construct: cPLA2 crudely purified from the cytoplasm fraction of U937; endogenous in cells; host or cells: U937 cells (cytoplasm fraction, crude purification)
# T1 sequence (P47712 1-749): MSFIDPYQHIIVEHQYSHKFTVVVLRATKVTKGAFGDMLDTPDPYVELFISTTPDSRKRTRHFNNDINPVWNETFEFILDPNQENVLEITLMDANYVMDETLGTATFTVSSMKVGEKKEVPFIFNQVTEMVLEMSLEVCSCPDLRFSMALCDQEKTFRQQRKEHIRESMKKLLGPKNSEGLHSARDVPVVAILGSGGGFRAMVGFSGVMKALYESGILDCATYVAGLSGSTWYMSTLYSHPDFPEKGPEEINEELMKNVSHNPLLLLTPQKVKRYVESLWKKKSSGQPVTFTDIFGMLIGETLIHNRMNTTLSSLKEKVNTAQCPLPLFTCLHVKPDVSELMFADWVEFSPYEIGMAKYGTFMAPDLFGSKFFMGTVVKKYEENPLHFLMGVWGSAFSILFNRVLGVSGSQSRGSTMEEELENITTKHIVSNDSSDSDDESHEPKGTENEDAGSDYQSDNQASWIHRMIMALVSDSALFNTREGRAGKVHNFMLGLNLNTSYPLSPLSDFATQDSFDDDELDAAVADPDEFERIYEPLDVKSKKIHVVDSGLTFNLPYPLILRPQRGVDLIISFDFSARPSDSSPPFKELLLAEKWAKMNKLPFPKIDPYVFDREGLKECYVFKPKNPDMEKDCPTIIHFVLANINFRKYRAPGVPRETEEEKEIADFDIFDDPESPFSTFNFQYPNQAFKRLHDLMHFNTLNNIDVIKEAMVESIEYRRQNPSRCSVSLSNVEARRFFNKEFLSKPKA
# Experiment: Measurement of cPLA2 inhibitory activity (release of [14C]-arachidonic acid from phosphatidyl choline liposome)
# Assay type: biochemical
# Conditions: cPLA2 from U937 cytoplasm fraction, [14C]arachidonyl-phosphatidyl choline liposome, 37° C., 60 minutes; read-out: cPLA2 inhibitory activity, 50% inhibiting concentration IC50
# Summary of the method: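 The read-out is radioactivity from extracted [14C]-arachidonic acid, freed over 60 min at 37° C from liposomes of 14C-arachidonyl phosphatidylcholine (10 μM PC in the added solution). Buffer was 50 mM HEPES pH 7.5 with Ca2+, DTT, NaCl and BSA. IC50 was derived from inhibition relative to enzyme control minus no-enzyme control.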
row,IC50,SMILES
1,157 nM,"COCC(=O)Nc1ccc(-n2cc(CCc3ccccc3)c3cc(CCC(=O)O)ccc32)cc1 [Example 197, 3-[1-{4-[(methoxyacetyl)amino]phenyl}-3-(2-phenylethyl)-1H-indol-5-yl]propanoic acid]"
2,986 nM,"O=C(O)CCc1ccc2c(c1)c(CCc1ccccc1)cn2-c1ccc(OCc2ccccc2)nc1 [Example 199, 3-{1-[6-(benzyloxy)pyridin-3-yl]-3-(2-phenylethyl)-1H-indol-5-yl}propanoic acid]"
3,219 nM,"COCCc1ccc(-n2cc(CCc3ccccc3)c3cc(CCC(=O)O)ccc32)cc1 [Example 201, 3-{1-[4-(2-methoxyethyl)phenyl]-3-(2-phenylethyl)-1H-indol-5-yl}propanoic acid]"
4,10 nM,"COCCOc1ccc(-n2cc(CCc3ccccc3)c3cc(CCC(=O)O)ccc32)cc1 [Example 203, 3-{1-[4-(2-methoxyethoxy)phenyl]-3-(2-phenylethyl)-1H-indol-5-yl}propanoic acid]"
5,133 nM,"O=C(O)CCc1ccc2c(c1)c(CCc1ccccc1)cn2-c1ccc(C(F)(F)F)cn1 [Example 205, 3-{3-(2-phenylethyl)-1-[5-(trifluoromethyl)pyridin-2-yl]-1H-indol-5-yl}propanoic acid]"
6,64 nM,"O=C(O)CCc1ccc2c(c1)c(CCc1ccccc1)cn2-c1ccc(C(F)(F)F)cc1 [Example 207, 3-{3-(2-phenylethyl)-1-[4-(trifluoromethyl)phenyl]-1H-indol-5-yl}propanoic acid]"
7,244 nM,"O=C(O)CCc1ccc2c(c1)c(CCc1ccccc1)cn2-c1ccc(CCO)cc1 [Example 209, 3-{1-[4-(2-hydroxyethyl)phenyl]-3-(2-phenylethyl)-1H-indol-5-yl}propanoic acid]"
8,790 nM,"COc1ccc(-n2cc(CCc3ccccc3)c3cc(CCC(=O)O)ccc32)cc1OC [Example 211, 3-[1-(3,4-dimethoxyphenyl)-3-(2-phenylethyl)-1H-indol-5-yl]propanoic acid]"
9,15 nM,"O=C(O)CCc1ccc2c(c1)c(CCc1ccccc1)cn2-c1ccc(OC2CCCCO2)cc1 (centres unmarked) [Example 213, 3-{3-(2-phenylethyl)-1-[4-(tetrahydro-2H-pyran-2-yloxy)phenyl]-1H-indol-5-yl}propanoic acid]"
10,5 nM,"O=C(O)CCc1ccc2c(c1)c(CCc1ccccc1)cn2-c1ccc(OC2CCCCO2)cc1 (centres unmarked) [Example 214, 3-{3-(2-phenylethyl)-1-[4-(tetrahydro-2H-pyran-2-yloxy)phenyl]-1H-indol-5-yl}propanoic acid 2-amino-2-(hydroxymethyl)propane-1,3-diol salt (1:1)]"
11,86 nM,"COCc1ccc(-n2cc(CCc3ccccc3)c3cc(CCC(=O)O)ccc32)cc1 [Example 216, 3-{1-[4-(methoxymethyl)phenyl]-3-(2-phenylethyl)-1H-indol-5-yl}propanoic acid]"
12,147 nM,"O=C(O)CCc1ccc2c(c1)c(CCc1ccccc1)cn2-c1ccc(CO)cc1 [Example 219, 3-{1-[4-(hydroxymethyl)phenyl]-3-(2-phenylethyl)-1H-indol-5-yl}propanoic acid]"
13,146 nM,"O=C(O)CCc1ccc2c(c1)c(CCc1ccccc1)cn2-c1ccc(CO)cc1 [Example 220, 3-{1-[4-(hydroxymethyl)phenyl]-3-(2-phenylethyl)-1H-indol-5-yl}propanoic acid 2-amino-2-(hydroxymethyl)propane-1,3-diol salt (1:1)]"
14,49 nM,"O=C(O)CCc1ccc2c(c1)c(CCc1ccccc1)cn2-c1ccc(OCCN2CCCC2)cc1 [Example 222, 3-{3-(2-phenylethyl)-1-[4-(2-pyrrolidin-1-ylethoxy)phenyl]-1H-indol-5-yl}propanoic acid]"
15,57 nM,"O=C(O)CCc1ccc2c(c1)c(CCc1ccccc1)cn2-c1ccc(OCCN2CCCC2)cc1 [Example 223, 3-{3-(2-phenylethyl)-1-[4-(2-pyrrolidin-1-ylethoxy)phenyl]-1H-indol-5-yl}propanoic acid hydrochloride]"
16,8 nM,"O=C(O)CCc1ccc2c(c1)c(CCc1ccccc1)cn2-c1ccc(OC2CCOCC2)cc1 [Example 225, 3-{3-(2-phenylethyl)-1-[4-(tetrahydro-2H-pyran-4-yloxy)phenyl]-1H-indol-5-yl}propanoic acid]"

row,IC50,SMILES
1,4 nM,"O=C(O)CCc1ccc2c(c1)c(CCc1ccccc1)cn2-c1ccc(OCCO)cc1 [Example 228, 3-{1-[4-(2-hydroxyethoxy)phenyl]-3-(2-phenylethyl)-1H-indol-5-yl}propanoic acid]"
2,82 nM,"O=C(O)CCc1ccc2c(c1)c(CCc1ccccc1)cn2-c1ccc2c(c1)OCCO2 [Example 233, 3-[1-(2,3-dihydro-1,4-benzodioxin-6-yl)-3-(2-phenylethyl)-1H-indol-5-yl]propanoic acid 2-amino-2-(hydroxymethyl)propane-1,3-diol salt (1:1)]"
3,122 nM,"O=C(O)CCc1ccc2c(c1)c(CCc1ccccc1)cn2-c1ccc(Cc2ccccn2)cc1 [Example 235, 3-{3-(2-phenylethyl)-1-[4-(pyridin-2-ylmethyl)phenyl]-1H-indol-5-yl}propanoic acid hydrochloride]"
4,193 nM,"O=C(O)CCc1ccc2c(c1)c(CCc1ccccc1)cn2-c1ccc(Cc2ccncc2)cc1 [Example 237, 3-{3-(2-phenylethyl)-1-[4-(pyridin-4-ylmethyl)phenyl]-1H-indol-5-yl}propanoic acid hydrochloride]"
5,54 nM,"O=C(O)/C=C/c1ccc2c(c1)c(CCc1ccccc1)cn2-c1ccc(O)cc1 [Example 239, (2E)-3-[1-(4-hydroxyphenyl)-3-(2-phenylethyl)-1H-indol-5-yl]-2-propenoic acid]"
6,4 nM,"O=C(O)CCc1ccc2c(c1)c(CCc1ccccc1)cn2-c1ccc(OCC2CCCCO2)cc1 (centres unmarked) [Example 243, 3-{3-(2-phenylethyl)-1-[4-(tetrahydro-2H-pyran-2-ylmethoxy)phenyl]-1H-indol-5-yl}propanoic acid 2-amino-2-(hydroxymethyl)propane-1,3-diol salt (1:1)]"
7,10 nM,"O=C(O)CCc1ccc2c(c1)c(CCc1ccccc1)cn2-c1ccc(OCc2ccccn2)cc1 [Example 245, 3-{3-(2-phenylethyl)-1-[4-(pyridin-2-ylmethoxy)phenyl]-1H-indol-5-yl}propanoic acid]"
8,7 nM,"O=C(O)CCc1ccc2c(c1)c(CCc1ccccc1)cn2-c1ccc(OCc2ccccn2)cc1 [Example 246, 3-{3-(2-phenylethyl)-1-[4-(pyridin-2-ylmethoxy)phenyl]-1H-indol-5-yl}propanoic acid hydrochloride]"
9,7 nM,"O=C(O)CCc1ccc2c(c1)c(CCc1ccccc1)cn2-c1ccc(OCc2cccnc2)cc1 [Example 248, 3-{3-(2-phenylethyl)-1-[4-(pyridin-3-ylmethoxy)phenyl]-1H-indol-5-yl}propanoic acid]"
10,26 nM,"O=C(O)CCc1ccc2c(c1)c(CCc1ccccc1)cn2-c1ccc(OCc2cccnc2)cc1 [Example 249, 3-{3-(2-phenylethyl)-1-[4-(pyridin-3-ylmethoxy)phenyl]-1H-indol-5-yl}propanoic acid hydrochloride]"
11,9 nM,"O=C(O)CCc1ccc2c(c1)c(CCc1ccccc1)cn2-c1ccc(OCCc2ccccn2)cc1 [Example 251, 3-{3-(2-phenylethyl)-1-[4-(2-pyridin-2-ylethoxy)phenyl]-1H-indol-5-yl}propanoic acid]"
12,14 nM,"O=C(O)CCc1ccc2c(c1)c(CCc1ccccc1)cn2-c1ccc(OCCc2cccnc2)cc1 [Example 253, 3-{3-(2-phenylethyl)-1-[4-(2-pyridin-3-ylethoxy)phenyl]-1H-indol-5-yl}propanoic acid]"
13,12 nM,"O=C(O)CCc1ccc2c(c1)c(CCc1ccccc1)cn2-c1ccc(OCCc2ccncc2)cc1 [Example 255, 3-{3-(2-phenylethyl)-1-[4-(2-pyridin-4-ylethoxy)phenyl]-1H-indol-5-yl}propanoic acid]"
14,7 nM,"O=C(O)CCc1ccc2c(c1)c(CCc1ccccc1)cn2-c1ccc(OCCCc2cccnc2)cc1 [Example 257, 3-{3-(2-phenylethyl)-1-[4-(3-pyridin-3-ylpropoxy)phenyl]-1H-indol-5-yl}propanoic acid]"
15,2 nM,"O=C(O)CCc1ccc2c(c1)c(CCc1ccccc1)cn2-c1ccc(OCCCc2cccnc2)cc1 [Example 258, 3-{3-(2-phenylethyl)-1-[4-(3-pyridin-3-ylpropoxy)phenyl]-1H-indol-5-yl}propanoic acid hydrochloride]"
16,8 nM,"O=C(O)CCc1ccc2c(c1)c(CCc1ccccc1)cn2-c1ccc(OCCCc2ccncc2)cc1 [Example 260, 3-{3-(2-phenylethyl)-1-[4-(3-pyridin-4-ylpropoxy)phenyl]-1H-indol-5-yl}propanoic acid]"

# From patent US8293781B2, “Indole derivatives having cPLA2 inhibiting activity and applications and production methods of the same” (Daiichi Sankyo Company, Limited, priority 2007, dated 2012)
